Assays:
[1] = system: kidney tumor; assay: Case report: kidney tumor patient, Sutent with and without DDW; type: in vivo, human
Protocol: c/ With another tyrosine kinase inhibiting agent, Sutent, a similar positive interaction was found. In one patient, kidney tumor was diagnosed in spring 2003 and was surgically removed. Up to spring 2006, three further operations were necessary because of the disease recidivating.
(§1) DdU units used in the treatment were determined as described in Example 1 and 2.

[2] = system: HT199 melanoma cell line; assay: In vitro growth of melanoma cells with DDW, doxorubicin and their combination; type: cell-based; conditions: 450 and 900 nM in normal (150 ppm D) medium
Protocol: Curves 4 and 6 show the inhibition by DDW plus the mentioned two concentrations of doxorubicin.
In the experiment, the effect of DDW, doxorubicin, and their combination was tested on HT199 melanoma cell line.

[3] = system: prostate cancer with bone metastasis; assay: Prostate cancer case reports: PSA tumor marker and remission versus DDW consumption; type: in vivo, human; conditions: patient, PSA over 1000 ng/mL, before start of DDW
Protocol: FIG. 1: Data of a patient with prostate cancer and bone metastasis, with extremely high PSA level (1000 ng/mL). Beside conventional treatment, DDW was also applied. In spite of the potentially bad prognosis the patient remained in regression for 9 years. PSA level: left Y axis and broken line; DDW dose: right Y axis and solid line.
FIG. 2: patient with prostate cancer and extreme PSA levels. […] Interrupting the DDW cure caused increasing PSA levels, and after finishing DDW consumption in December 2009 PSA was soaring. Broken line: PSA level, solid line: DDW dose.
Patient 2 (FIG. 1) had bone metastasis in the early phase of the disease, PSA was over 1000 ng/mL. […] They started consuming DDW in April 2003, 640 days (=21.3 months) after diagnosing bone metastasis with 15.0 ng/mL PSA. They consumed DDW for nearly one year at DdU of 1.0. A break of 6 months followed this cure, during which the disease progressed and PSA increased from 1 to 4.34 ng/mL. A new DDW cure brought regression and PSA below 1 ng/mL. 4 years after diagnosis, Androcure was replaced with Suprefact. Further DDW treatments (see FIG. 1 for DdU values) PSA was decreased in the following 3 years and the patient had no complaints in spite of the existing bone metastasis and the generally bad prognosis. […]

[4] = system: chronic myeloid leukemia (CML); assay: Case report: chronic myeloid leukemia patient, DDW with Litaril, then STI 571 (Gleevec); type: in vivo, human
Protocol: b/ In a young patient in 1998, chronic myeloid leukemia (CML) was diagnosed, and was medicated with Litaril because of high WBC count. […] In February 2001 the patient was enrolled in the clinical trial of the drug candidate STI 571 (Gleevec). By August 2001, bone marrow damage decreased to 66% from the previous 80%.
as §1

[5] = system: breast cancer; conditions: Taxotere without DDW, general experience; cited from earlier work

In the case of `CCN(CC)CCNC(=O)c1c(C)[nH]c(/C=C2\C(=O)Nc3ccc(F)cc32)c1C` [Sutent], the tumor response ([1]; one kidney tumor patient, Sutent without DDW, progression again in March 2007) is reported as “efficient initially”, the tumor response ([1]; same patient, DDW in parallel with Sutent from autumn 2007) is reported as “the tumors shrank again” and the “tumor response on images” value ([1]; same patient, DDW in parallel with Sutent, three years later) is reported as “ongoing decrease of the tumor sizes”.

For `COc1cccc2c1C(=O)c1c(O)c3c(c(O)c1C2=O)C[C@@](O)(C(=O)CO)C[C@@H]3O[C@H]1C[C@H](N)[C@H](O)[C@H](C)O1` [doxorubicin], the “effect on growth of melanoma cells” value [2] was “inhibitory effect”.

In the case of `C[C@]12CC[C@@H]3c4ccc(OC(=O)N(CCCl)CCCl)cc4CC[C@H]3[C@@H]1CC[C@@H]2OP(=O)(O)O` [Estracyt], the PSA change [3] is reported as “PSA was rapidly lowered”.

In the case of `Cc1ccc(NC(=O)c2ccc(CN3CCN(C)CC3)cc2)cc1Nc1nccc(-c2cccnc2)n1` [STI 571], the disease status ([4]; one CML patient consuming DDW and on STI 571, April 2002) is reported as “fully negative” and the bone marrow damage ([4]; one CML patient consuming DDW, STI 571 from February 2001, by August 2001, previously 80%) is reported as 66%.

For `CC(=O)O[C@@]12CO[C@@H]1C[C@H](O)[C@@]1(C)C(=O)[C@H](O)C3=C(C)[C@@H](OC(=O)[C@H](O)[C@@H](NC(=O)OC(C)(C)C)c4ccccc4)C[C@@](O)([C@@H](OC(=O)c4ccccc4)[C@H]21)C3(C)C` [Taxotere, docetaxel], the MST [5] is listed as 20-22 months.

For `CC(=O)O[C@]1(C(C)=O)CC[C@H]2[C@@H]3C=C(Cl)C4=CC(=O)[C@@H]5C[C@@H]5[C@]4(C)[C@H]3CC[C@@]21C` [Androcure], the PSA change [3] was “PSA was rapidly lowered”.

Source: US20140127194A1, “COMBINED PHARMACEUTICAL COMPOSITIONS FOR THE TREATMENT OF TUMORS” (HYD Rákkutató és Gyógyszerfejlesztö Kft., priority 2011, published 2014)
